Experiments:
leukocyte esterase (LE) [1] = assay: internally calibrated electrochemical continuous enzyme assay (ICECEA) with TAPTA as enzyme substrate; type: biochemical; conditions: LE concentrations 0-250 μg/L, amperometric current (FIG. 4)
Experimental: ICECEAs generally follow the following method as described in U.S. 201610040209. First, an enzyme substrate (e.g. an LE and/or HNE substrate of the present disclosure) is placed in a background electrolyte. Next, a reactant or product of an enzymatic reaction of the enzyme is added to the first enzyme substrate/background electrolyte, which creates what is described as a “first assay mixture.” Current flowing through an electrode of the electrochemical assay is then measured after the first assay mixture is formed. Next, the enzyme (e.g. LE and/or HNE) is added to the “first assay mixture” to create a “second assay mixture,” and the current is measured again over a predetermined time period. Enzyme activity is determined based on the change in current over time caused by the addition of the enzyme. […]
The ICECEA includes an electrochemical measuring device. […] The current is measured through the working electrode. […]
Generally, in an ICECEA, adding the reactant/product to the enzyme substrate (in electrolyte) in the electrochemical assay system includes the following steps. […] Current flowing through an electrode of the electrochemical assay system is measured after the first aliquot is added. One or more additional aliquots of the reactant/product are added to the mixture and current flowing through an electrode of the electrochemical assay system is measured again. […]

leukocyte esterase (LE) [2] = assay: screen-printed electrode strip with monoester substrate, voltammograms at varying LE concentrations; type: biochemical; conditions: substrate screen-printed on electrode strip; 0.125 U/m to 0.35 U/ml LE (FIG. 7)
Source text: In one embodiment, the substrate of the leukocyte esterase enzyme is screen-printed onto the surfaces of an electrode sensor strips using known and commercially-available techniques and materials.
Specifically, electrode strips were screen printed with the substrate having the structure as depicted in Formula V. The strips were contacted with varying concentrations of LE (i.e. 0.125 U/m to 0.35 U/ml LE).
The plot clearly indicates significant reduction peaks at about −0.17 V, which correspond to the redox reaction of hydroquinone molecules that are released upon cleavage of the monoester by leukocyte esterases at the ester active site. […] Based on this measured level, a determination can be made as to whether the patient's level of LE is high enough to indicate infection.

| melting point [°C] | Compound | response of LE enzyme activity relative to LE concentration (leukocyte esterase (LE) [1]) | relation of reduction peaks to LE activity in the sample (leukocyte esterase (LE) [2]) |
| --- | --- | --- | --- |
|  | Cc1ccc(S(=O)(=O)N[C@@H](C)C(=O)Oc2ccc(OC(=O)[C@H](C)NS(=O)(=O)c3ccc(C)cc3)cc2)cc1 [TAPTA, 4-((tosyl-L-alanyl)oxy)phenyl tosyl-L-alaninate] | linear response relative to LE concentration |  |
| 113 to 116 | COC(=O)c1cncc(S(=O)(=O)N[C@@H](C)C(=O)Oc2ccc(O)cc2)c1 [monoester] |  | directly related to the LE activity within the sample in a dose dependent manner |
